Source: PubChem BioAssay (NCI)
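Grown in 96-well plates, cells were treated for 48 hours with each compound at five concentrations. Insufficient inhibition: endpoint recorded as highest concentration tested. TGI: total growth inhibition.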

Assays:
Assay in all cases: DTP human tumour cell line panel, 48 h
CAKI-1 renal = tested on: CAKI-1 renal
HOP-92 NSCLC = tested on: HOP-92 NSCLC
K-562 leukemia = tested on: K-562 leukemia
A498 renal = tested on: A498 renal
UACC-257 melanoma = tested on: UACC-257 melanoma
EKVX NSCLC = tested on: EKVX NSCLC
MDA-MB-435 = tested on: MDA-MB-435
BT-549 breast = tested on: BT-549 breast
U251 CNS = tested on: U251 CNS
ACHN renal = tested on: ACHN renal
CCRF-CEM leukemia = tested on: CCRF-CEM leukemia
NCI-H460 lung = tested on: NCI-H460 lung
OVCAR-5 ovarian = tested on: OVCAR-5 ovarian
UACC-62 melanoma = tested on: UACC-62 melanoma
MDA-MB-231 breast = tested on: MDA-MB-231 breast
COLO 205 colon = tested on: COLO 205 colon
OVCAR-8 ovarian = tested on: OVCAR-8 ovarian
SN12C renal = tested on: SN12C renal
SK-MEL-5 melanoma = tested on: SK-MEL-5 melanoma
MOLT-4 leukemia = tested on: MOLT-4 leukemia

Row | Compound | TGI (CAKI-1 renal) [µM] | TGI (HOP-92 NSCLC) [µM] | TGI (K-562 leukemia) [µM] | TGI (A498 renal) [µM] | TGI (UACC-257 melanoma) [µM] | TGI (EKVX NSCLC) [µM] | TGI (MDA-MB-435) [µM] | TGI (BT-549 breast) [µM] | TGI (U251 CNS) [µM] | TGI (ACHN renal) [µM] | TGI (CCRF-CEM leukemia) [µM] | TGI (NCI-H460 lung) [µM] | TGI (OVCAR-5 ovarian) [µM] | TGI (UACC-62 melanoma) [µM] | TGI (MDA-MB-231 breast) [µM] | TGI (COLO 205 colon) [µM] | TGI (OVCAR-8 ovarian) [µM] | TGI (SN12C renal) [µM] | TGI (SK-MEL-5 melanoma) [µM] | TGI (MOLT-4 leukemia) [µM]
1 | COc1cc2cc(C(=O)N3CC(COS(C)(=O)=O)c4c3cc([N+](=O)[O-])c3ccccc43)[nH]c2c(OC)c1OC (stereo not drawn) | > 50 | > 31.6 | > 100 | 53 | > 31.6 | > 31.6 | > 31.6 | > 31.6 | > 31.6 | > 31.6 | > 31.6 | > 31 | > 31.6 | > 31.6 | > 100 | > 100 | > 31.6 | > 100 | – | –
2 | C=CCC1(O)c2cccc(O)c2C(=O)c2c(O)cccc21 | > 100 | 88.9 | > 100 | 79.4 | 68.3 | 92.2 | > 100 | 60.7 | 69.1 | > 100 | – | > 100 | > 100 | – | > 100 | – | > 100 | – | 85.9 | > 100
3 | Cc1ccc(C2SC(N)=Nc3c2c(C)nn3C(=O)c2ccncc2)cc1 (stereo not drawn) | > 10 | > 10 | > 10 | – | > 10 | – | > 10 | > 10 | > 10 | > 10 | > 10 | > 10 | > 10 | > 10 | > 10 | > 10 | > 10 | > 10 | > 10 | > 10
4 | COc1cccc(/C=N/n2c(-c3ccccc3)n[nH]c2=O)c1 | > 100 | – | > 100 | > 100 | > 100 | > 100 | > 100 | 86.1 | > 100 | > 100 | > 100 | > 100 | > 100 | > 100 | > 100 | > 100 | 96.9 | > 100 | – | > 100
5 | OC[C@H]1CC(c2nn[nH]n2)[C@H](O)[C@@H]1O (stereo partly drawn) | – | > 100 | > 100 | > 100 | – | – | > 100 | > 100 | > 100 | > 100 | > 100 | > 100 | > 100 | – | > 100 | > 100 | > 100 | > 100 | > 100 | > 100
6 | Cc1sc(N=Nc2c(O)[nH]c3ccccc23)nc1-c1ccccc1 | 32.8 | 45.2 | – | 32.3 | 47.8 | 31.6 | 66.8 | 41.5 | 34.3 | 31.1 | – | 42.2 | 49.3 | 34.3 | 33.3 | 46.2 | 40.2 | 34.9 | 33.9 | 65.4
7 | CNC(=O)N(CCC#N)CCN(CCN(C(=O)NC)c1ccccc1)C(=O)NC | > 100 | > 100 | > 100 | – | > 100 | > 100 | > 100 | > 100 | > 100 | > 100 | > 100 | > 100 | > 100 | > 100 | > 100 | > 100 | > 100 | > 100 | > 100 | > 100
